Measured values taken from ChEMBL document CHEMBL1201862, “PubChem BioAssay data set” (2004).
Activity calls are given as the source filed them.

Experiments:
[1] = target: DNA repair and recombination protein RAD54-like (Homo sapiens, UniProt Q92698); assay: RAD54 Holliday junction migration blockers – biochemical, fluorescence, cherry-picked samples, dose series, confirmation (AID 651657); assay type: functional
Bcl-2-related protein A1 = target: T1, Bcl-2-related protein A1 (Mus musculus, UniProt Q07440); assay type: functional;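 also: confirmatory dose–response counterscreen on Bfl-1, used to check hits from a UBC13 polyubiquitin inhibitor campaign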
T1 sequence (Q07440 whole entry): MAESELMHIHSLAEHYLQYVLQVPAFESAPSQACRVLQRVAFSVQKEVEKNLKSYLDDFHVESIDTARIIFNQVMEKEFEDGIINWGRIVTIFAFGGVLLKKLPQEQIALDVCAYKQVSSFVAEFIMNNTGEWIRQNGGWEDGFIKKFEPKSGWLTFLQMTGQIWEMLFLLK

[2] = target: T2, Apoptotic protease-activating factor 1 (Homo sapiens, UniProt O14727); assay type: functional
T2 sequence (O14727 whole entry): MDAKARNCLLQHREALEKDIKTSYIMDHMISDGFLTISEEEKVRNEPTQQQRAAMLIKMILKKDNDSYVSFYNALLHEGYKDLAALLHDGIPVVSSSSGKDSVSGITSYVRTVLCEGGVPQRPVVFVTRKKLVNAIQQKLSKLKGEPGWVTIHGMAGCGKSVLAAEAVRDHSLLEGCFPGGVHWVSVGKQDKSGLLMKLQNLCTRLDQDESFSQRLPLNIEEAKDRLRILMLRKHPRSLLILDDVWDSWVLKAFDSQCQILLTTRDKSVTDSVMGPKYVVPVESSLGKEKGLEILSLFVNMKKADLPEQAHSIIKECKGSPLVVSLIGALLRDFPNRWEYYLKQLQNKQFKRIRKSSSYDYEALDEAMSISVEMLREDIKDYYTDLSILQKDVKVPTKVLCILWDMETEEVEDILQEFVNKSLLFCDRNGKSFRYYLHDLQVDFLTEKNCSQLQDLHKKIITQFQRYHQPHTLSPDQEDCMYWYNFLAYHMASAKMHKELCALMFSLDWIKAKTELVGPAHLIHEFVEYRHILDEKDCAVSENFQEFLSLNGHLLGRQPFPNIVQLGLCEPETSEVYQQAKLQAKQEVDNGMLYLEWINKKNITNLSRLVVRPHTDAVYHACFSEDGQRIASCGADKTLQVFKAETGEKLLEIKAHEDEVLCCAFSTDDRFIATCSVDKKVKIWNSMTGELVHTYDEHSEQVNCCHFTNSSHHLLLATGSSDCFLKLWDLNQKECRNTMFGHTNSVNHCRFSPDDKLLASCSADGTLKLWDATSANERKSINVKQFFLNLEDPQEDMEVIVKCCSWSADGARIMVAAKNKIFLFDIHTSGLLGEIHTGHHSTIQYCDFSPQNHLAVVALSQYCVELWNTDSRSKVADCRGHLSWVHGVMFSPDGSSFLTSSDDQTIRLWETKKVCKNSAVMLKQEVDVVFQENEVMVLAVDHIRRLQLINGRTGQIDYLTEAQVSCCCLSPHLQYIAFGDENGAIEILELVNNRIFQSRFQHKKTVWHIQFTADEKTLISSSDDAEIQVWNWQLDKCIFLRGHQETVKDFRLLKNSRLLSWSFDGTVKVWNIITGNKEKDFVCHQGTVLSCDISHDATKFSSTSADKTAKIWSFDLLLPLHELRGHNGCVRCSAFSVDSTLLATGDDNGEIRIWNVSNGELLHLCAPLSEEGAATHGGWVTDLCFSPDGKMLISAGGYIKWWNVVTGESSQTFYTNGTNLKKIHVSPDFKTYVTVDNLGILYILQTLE

[3] = cytotoxicity toward MDA-MB-231 breast cancer cells – cell-based, CellTiter-Glo luminescence, cherry-pick, cytotoxicity control for RAD54 inhibitor project, dose response (AID 651692); assay type: functional
Melanocortin receptor 4 = Melanocortin receptor 4 (Homo sapiens, UniProt P32245); assay type: functional, cell-based;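 also: Cell-based assay with luminescence read-out, confirmatory dose-response testing for agonist activity of biased ligands at MC4R; human U2OS cells with tagged receptor and beta-arrestin; potency of agonists that increase receptor coupling to beta-arrestin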
[4] = target: T3, Ubiquitin-conjugating enzyme E2 N (Homo sapiens, UniProt P61088); assay type: functional
T3 sequence (P61088 whole entry): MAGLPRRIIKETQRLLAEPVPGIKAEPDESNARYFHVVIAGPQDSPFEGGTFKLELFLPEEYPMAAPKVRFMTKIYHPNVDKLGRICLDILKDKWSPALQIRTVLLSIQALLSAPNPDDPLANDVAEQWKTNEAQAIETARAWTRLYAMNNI

[5] = target: T3, Ubiquitin-conjugating enzyme E2 N; assay type: functional; remark: listed apart in the source
[6] = toxicity toward cultured mammalian cells – cell-based, plate reader, cherry-pick samples, cytotoxicity control, dose response (AID 504397); assay type: functional
Trypsin = Trypsin (Sus scrofa, UniProt P00761); assay: trypsin protease activity blockade – biochemical, quenched peptide fluorescence, cherry-pick, selectivity assay for Rce1 protease inhibitor project, dose response (AID 488789)
[7] = target: Glucose-6-phosphate 1-dehydrogenase (Homo sapiens, UniProt P11413); assay: inhibition of Homo sapiens G6PD, dose series – biochemical, fluorescence, selectivity assay for P. falciparum G6PD inhibitor project, dose response (AID 504792); assay type: functional
CAAX prenyl protease 2 = target: T4, CAAX prenyl protease 2 (Saccharomyces cerevisiae S288c, UniProt Q03530); assay type: biochemical
T4 sequence (Q03530 whole entry): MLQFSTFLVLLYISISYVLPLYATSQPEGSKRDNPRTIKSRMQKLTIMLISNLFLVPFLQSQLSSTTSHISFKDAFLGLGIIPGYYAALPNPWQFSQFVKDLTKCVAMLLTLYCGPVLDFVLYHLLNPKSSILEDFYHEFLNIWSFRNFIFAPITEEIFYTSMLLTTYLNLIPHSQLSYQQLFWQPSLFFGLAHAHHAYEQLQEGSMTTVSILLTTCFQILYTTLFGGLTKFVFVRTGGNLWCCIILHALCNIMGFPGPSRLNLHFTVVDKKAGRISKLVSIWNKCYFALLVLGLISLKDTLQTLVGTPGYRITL

[8] = target: G-protein coupled receptor 55 (Homo sapiens, UniProt Q9Y2T6); assay: selective activators of receptor GPR55 – imaging, U2OS cells, beta-arrestin-GFP redistribution, primary screen (AID 1961); assay type: functional
Sequence of G-protein coupled receptor 55 (Q9Y2T6 whole entry): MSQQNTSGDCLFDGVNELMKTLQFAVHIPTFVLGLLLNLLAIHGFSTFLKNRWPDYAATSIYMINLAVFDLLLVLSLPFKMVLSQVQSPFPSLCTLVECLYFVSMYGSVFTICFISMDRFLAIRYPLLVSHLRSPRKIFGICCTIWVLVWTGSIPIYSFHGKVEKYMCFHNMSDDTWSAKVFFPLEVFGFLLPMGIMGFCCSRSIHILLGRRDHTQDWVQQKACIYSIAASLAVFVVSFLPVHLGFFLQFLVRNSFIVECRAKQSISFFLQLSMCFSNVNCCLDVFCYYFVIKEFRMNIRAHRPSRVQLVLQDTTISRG

Sequence of Glucose-6-phosphate 1-dehydrogenase (P11413 whole entry): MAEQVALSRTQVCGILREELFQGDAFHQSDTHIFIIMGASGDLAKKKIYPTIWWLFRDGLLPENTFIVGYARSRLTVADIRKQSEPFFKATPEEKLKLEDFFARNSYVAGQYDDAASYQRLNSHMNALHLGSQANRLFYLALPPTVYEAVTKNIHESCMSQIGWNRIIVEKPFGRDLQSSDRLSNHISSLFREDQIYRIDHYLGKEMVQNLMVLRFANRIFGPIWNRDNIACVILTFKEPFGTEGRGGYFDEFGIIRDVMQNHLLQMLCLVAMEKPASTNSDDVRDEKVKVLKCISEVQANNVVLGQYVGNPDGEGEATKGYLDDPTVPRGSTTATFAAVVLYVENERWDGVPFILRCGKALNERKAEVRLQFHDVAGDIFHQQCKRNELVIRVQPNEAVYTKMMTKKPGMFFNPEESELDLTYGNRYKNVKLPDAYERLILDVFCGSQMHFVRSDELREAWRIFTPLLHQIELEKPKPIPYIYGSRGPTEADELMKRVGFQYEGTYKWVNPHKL
Sequence of Melanocortin receptor 4 (P32245 whole entry): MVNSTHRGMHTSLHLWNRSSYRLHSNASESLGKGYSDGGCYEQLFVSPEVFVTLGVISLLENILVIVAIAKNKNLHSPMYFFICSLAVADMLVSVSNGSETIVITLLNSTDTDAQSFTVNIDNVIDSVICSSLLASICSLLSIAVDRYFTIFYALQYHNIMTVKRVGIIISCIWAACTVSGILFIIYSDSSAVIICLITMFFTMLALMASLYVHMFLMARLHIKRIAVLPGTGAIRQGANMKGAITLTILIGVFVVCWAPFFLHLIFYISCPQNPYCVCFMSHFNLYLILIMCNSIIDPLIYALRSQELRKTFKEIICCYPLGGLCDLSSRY
Sequence of Trypsin (P00761 whole entry): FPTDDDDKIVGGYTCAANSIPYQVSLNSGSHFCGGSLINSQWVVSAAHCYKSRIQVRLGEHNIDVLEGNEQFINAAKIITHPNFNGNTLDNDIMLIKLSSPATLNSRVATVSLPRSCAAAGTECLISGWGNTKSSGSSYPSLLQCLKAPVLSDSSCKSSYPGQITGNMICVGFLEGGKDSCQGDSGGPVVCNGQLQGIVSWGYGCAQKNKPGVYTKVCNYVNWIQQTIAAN
Sequence of DNA repair and recombination protein RAD54-like (Q92698 whole entry): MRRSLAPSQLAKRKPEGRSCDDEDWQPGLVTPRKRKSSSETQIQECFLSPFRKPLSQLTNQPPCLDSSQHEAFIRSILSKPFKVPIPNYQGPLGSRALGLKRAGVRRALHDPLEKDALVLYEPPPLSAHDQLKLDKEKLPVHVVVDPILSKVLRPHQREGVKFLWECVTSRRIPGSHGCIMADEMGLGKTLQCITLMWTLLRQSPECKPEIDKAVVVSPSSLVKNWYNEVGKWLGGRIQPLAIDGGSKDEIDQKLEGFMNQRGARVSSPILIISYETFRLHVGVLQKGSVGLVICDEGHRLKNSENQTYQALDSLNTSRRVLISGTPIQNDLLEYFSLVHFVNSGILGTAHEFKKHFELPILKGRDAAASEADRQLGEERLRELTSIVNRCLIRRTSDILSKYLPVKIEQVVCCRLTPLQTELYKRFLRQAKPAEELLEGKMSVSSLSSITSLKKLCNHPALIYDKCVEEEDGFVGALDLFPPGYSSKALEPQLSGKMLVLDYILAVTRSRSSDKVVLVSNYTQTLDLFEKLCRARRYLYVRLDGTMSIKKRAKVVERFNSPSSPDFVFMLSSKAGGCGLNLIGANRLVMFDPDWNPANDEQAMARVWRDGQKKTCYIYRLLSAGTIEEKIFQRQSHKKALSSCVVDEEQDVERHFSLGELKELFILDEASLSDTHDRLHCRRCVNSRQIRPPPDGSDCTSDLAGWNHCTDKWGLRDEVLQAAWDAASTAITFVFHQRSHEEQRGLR

| Compound | AC50 [1] | IC50 (Bcl-2-related protein A1) | IC50 [2] | AC50 [3] | EC50 (Melanocortin receptor 4) | IC50 [4] | IC50 [5] | AC50 [6] | AC50 (Trypsin) | IC50 [7] | AC50 (CAAX prenyl protease 2) | EC50 [8] |
| --- | --- | --- | --- | --- | --- | --- | --- | --- | --- | --- | --- | --- |
| Cc1ccc(-c2csc3nc4c5ccccc5c(NCCCN(C)C)nn4c(=O)c23)cc1 | 13.3 µM (active) | > 20 µM (inactive) | 40 µM (active) | 13.6 µM (active) | > 89.2 µM (inactive) | 13.7 µM (active) | 3.7 µM (active) | – | – | – | – | – |
| Cc1cc(NC(=O)c2oc3ccccc3c2C)ccc1-n1cnnn1 | – | – | – | – | – | – | – | > 350 µM (inactive) | > 100 µM (inactive) | > 80 µM (inactive) | 0.558 µM (active) | 2.68 µM (active) |
